Laboratory results: patent US20080161340A1, “Tetrahydroquinilinones, tetrahydronaphthyridones and derivatives thereof” (priority 2006, published 2008)

Key:
Type in all cases: cell-based
rCB2 = biological target: T1, rCB2 (Rattus norvegicus, UniProt Q9QZN9); experiment: cAMP assay, rCB2 in Table 7, agonist/inverse agonist; settings: intracellular cAMP; + agonist, − inverse agonist
T1 sequence (Q9QZN9 1-360): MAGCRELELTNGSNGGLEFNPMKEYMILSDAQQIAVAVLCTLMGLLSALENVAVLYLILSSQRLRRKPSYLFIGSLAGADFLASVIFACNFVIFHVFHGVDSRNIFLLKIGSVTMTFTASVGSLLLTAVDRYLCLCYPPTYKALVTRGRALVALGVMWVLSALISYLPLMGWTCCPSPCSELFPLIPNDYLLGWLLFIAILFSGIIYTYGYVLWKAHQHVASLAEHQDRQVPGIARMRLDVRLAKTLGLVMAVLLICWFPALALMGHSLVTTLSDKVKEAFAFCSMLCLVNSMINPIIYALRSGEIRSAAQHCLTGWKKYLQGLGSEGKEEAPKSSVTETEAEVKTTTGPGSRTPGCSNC
Method: (§1) Receptor mediated responses were determined by measuring changes in intracellular cAMP using LANCE cAMP detection kit (cat #AD0264, PerkinElmer, Wellesley, Mass.) based on time-resolved fluorescence resonance energy transfer (TR-FRET). Changes in cAMP were determined in cells pre-incubated with IBMX (isobutyl methylxanthine) and prestimulated with NKH-477 (a water soluble forskolin derivative, cat #1603, Tocris, Ellisville, Mo.) to increase basal cAMP levels as detailed below.
(§2) On the day of the experiment, cells were spun at low speed for 5 min at room temperature. The supernatant was removed and cells were resuspended in stimulation buffer (Hanks Buffered Salt Solution/5 mM HEPES, containing 0.5 mM IBMX (cat #17018, Sigma) and 0.02% BSA (PerkinElmer, cat #CR84-100)). Cell clumps were removed by filtering through cell strainer 40 μm (BD Falcon, Discovery Labware, Bedford, Mass.) and diluted to 2×10^5 cells/mL. Antibody supplied with the LANCE cAMP immunoassay kit was then added according to the manufacturer's instructions. An aliquot of cells was taken for un-induced controls. To the remaining cells was added NKH-477 (a water soluble forskolin derivative, Tocris cat #1603) to a final concentration of 2-8 μM. Cells were then incubated for 30 min at room temperature prior to adding to Proxiplates containing test compounds (final DMSO concentration was less than 0.5%) with a Multidrop bulk dispenser, followed by a sixty minute incubation at room temperature. The response was stopped by addition of the detection mix supplied with the LANCE kit.
(§3) The reagents were allowed to equilibrate for three hours prior to reading on an Envision multi-mode detector (PerkinElmer). TR-FRET was measured using a 330-380 nm excitation filter, a 665 nm emission filter, dichroic mirror 380 nm and Z=1 mm.
(§4) Cyclic AMP concentrations in each well were back-calculated from a cAMP standard curve run concurrently during each assay. Each plate contained 16 wells of forskolin stimulated cells and 16 wells of forskolin plus CP55,940-treated. CP55,940-treated cells were treated with CP55,940 (Tocris cat. # 0949) at 1 μm and the maximal response was used as the full range (100%) standard. WIN55,212 (Tocris cat. # 1038) was used as an internal standard. Concentrations of cAMP were expressed as a percent of the difference of these two groups of wells. Concentration-response data including ECso (the concentration of compound producing 50% of the maximal response) and intrinsic activity (the percent maximal activation compared to full activation by CP55,940) were determined using a four-parameter non-linear regression algorithm (Xlfit equation 251, IDBS).

hCB1 = biological target: T2, hCB1 (Homo sapiens, UniProt P21554); experiment: cAMP assay (LANCE TR-FRET) in CHO-K1 cells stably expressing hCB1, agonist/inverse agonist; settings: intracellular cAMP, CHO-K1 hCB1 cells prestimulated with NKH-477, + agonist, − inverse agonist; for EC50: read-out: hCB1 EC50 class
T2 construct: host or cells: CHO-K1
Method: (§5) The ability of compounds to act as agonists or inverse agonists at human CB2 and CB1 receptors (hCB2, hCB1, respectively) was determined by measuring changes in intracellular cAMP levels. Chinese Hamster Ovary (CHO-K1) cell lines stably expressing hCB2 (Genebank: X74328) or hCB1 (Genebank: X54937) were purchased from Euroscreen (Gosselies, Belgium).
(§6) Cell lines were grown in suspension in EX-CELL 302 CHO Serum-free medium (Sigma, cat #14324C) supplemented with 1% Fetal Bovine Serum, glutamine and non-essential amino-acids under 0.4 mg/mL G418 selection.
as §1, §2, §3, §4

hCB2 = biological target: T3, hCB2 (Homo sapiens, UniProt P34972); experiment: cAMP assay (LANCE TR-FRET) in CHO-K1 cells stably expressing hCB2, agonist/inverse agonist; settings: intracellular cAMP, CHO-K1 hCB2 cells prestimulated with NKH-477; + agonist, − inverse agonist
T3 construct: host or cells: CHO-K1
Method: as §5, §6, §1, §2, §3, §4

T2 sequence (P21554 whole entry): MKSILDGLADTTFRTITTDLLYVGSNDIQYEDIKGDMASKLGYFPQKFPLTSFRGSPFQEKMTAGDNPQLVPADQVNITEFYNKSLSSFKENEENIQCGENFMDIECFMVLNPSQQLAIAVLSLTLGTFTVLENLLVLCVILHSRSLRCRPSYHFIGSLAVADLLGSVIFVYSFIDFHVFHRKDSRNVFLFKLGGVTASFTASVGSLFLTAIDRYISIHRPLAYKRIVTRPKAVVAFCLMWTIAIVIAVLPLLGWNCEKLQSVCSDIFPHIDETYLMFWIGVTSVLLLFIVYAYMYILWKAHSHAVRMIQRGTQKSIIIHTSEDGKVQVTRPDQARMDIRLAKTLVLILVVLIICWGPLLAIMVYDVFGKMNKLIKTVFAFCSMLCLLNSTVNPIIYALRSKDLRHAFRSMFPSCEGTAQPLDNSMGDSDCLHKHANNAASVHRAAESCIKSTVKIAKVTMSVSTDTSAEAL
T3 sequence (P34972 whole entry): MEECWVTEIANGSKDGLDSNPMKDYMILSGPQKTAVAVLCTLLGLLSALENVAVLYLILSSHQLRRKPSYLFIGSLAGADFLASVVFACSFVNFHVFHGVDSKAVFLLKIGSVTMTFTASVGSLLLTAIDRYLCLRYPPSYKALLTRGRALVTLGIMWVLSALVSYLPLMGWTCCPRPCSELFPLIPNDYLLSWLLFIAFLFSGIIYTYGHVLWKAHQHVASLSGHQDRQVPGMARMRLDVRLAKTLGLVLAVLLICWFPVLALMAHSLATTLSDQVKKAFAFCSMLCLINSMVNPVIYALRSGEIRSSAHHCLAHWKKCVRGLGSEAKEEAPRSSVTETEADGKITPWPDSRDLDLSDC

Compound | rCB2 EC50 class (rCB2) | EC50 (hCB1) [µM] | hCB2 EC50 class (hCB2) | hCB1 EC50 class (hCB1)
O=c1c(-c2ccccc2)cc2c(n1CC1CCC1)CCCC2 [Compound 1, 1-(cyclobutylmethyl)-3-phenyl-5,6,7,8-tetrahydroquinolin-2(1H)-one] | +A | > 10 | +B | –
O=c1c(-c2ccccc2)cc2c(n1CC1CC1)CCCC2 [Compound 2, 1-(cyclopropylmethyl)-3-phenyl-5,6,7,8-tetrahydroquinolin-2(1H)-one] | +C | > 10 | +B | –
O=c1c(-c2cccc(F)c2)cc2c(n1CC1CC1)CCCC2 [Compound 4, 1-(cyclopropylmethyl)-3-(3-fluorophenyl)-5,6,7,8-tetrahydroquinolin-2(1H)-one] | +C | – | – | +C
O=c1c(-c2cc3c(n(CC4CCC4)c2=O)CCCC3)cc2c(n1CC1CCC1)CCCC2 [Compound 5, 1,1′-bis(cyclobutylmethyl)-5,5′,6,6′,7,7′,8,8′-octahydro-3,3′-biquinoline-2,2′(1H,1′H)-dione] | +A | – | +A | +C
O=c1c(-c2cccc(C(F)(F)F)c2)cc2c(n1CC1CCC1)CCCC2 [Compound 6, 1-(cyclobutylmethyl)-3-(3-(trifluoromethyl)phenyl)-5,6,7,8-tetrahydroquinolin-2(1H)-one] | +A | > 10 | +A | –
O=c1c(-c2ccc(C(F)(F)F)cc2)cc2c(n1CC1CCC1)CCCC2 [Compound 7, 1-(cyclobutylmethyl)-3-(4-(trifluoromethyl)phenyl)-5,6,7,8-tetrahydroquinolin-2(1H)-one] | +A | > 10 | +A | –
O=c1c(-c2cccc(Cl)c2)cc2c(n1CC1CCC1)CCCC2 [Compound 8, 3-(3-chlorophenyl)-1-(cyclobutylmethyl)-5,6,7,8-tetrahydroquinolin-2(1H)-one] | +A | > 10 | +A | –
O=c1c(-c2cccs2)cc2c(n1CC1CCC1)CCCC2 [Compound 9, 1-(cyclobutylmethyl)-3-(thiophen-2-yl)-5,6,7,8-tetrahydroquinolin-2(1H)-one] | +C | > 10 | +B | –
O=c1c(-c2cccnc2)cc2c(n1CC1CCC1)CCCC2 [Compound 10, 1-(cyclobutylmethyl)-3-(pyridin-3-yl)-5,6,7,8-tetrahydroquinolin-2(1H)-one] | +B | > 10 | +B | –
O=c1c(-c2ccoc2)cc2c(n1CC1CCC1)CCCC2 [Compound 12, 1-(cyclobutylmethyl)-3-(furan-3-yl)-5,6,7,8-tetrahydroquinolin-2(1H)-one] | +B | > 10 | +C | –
COc1ccncc1-c1cc2c(n(CC3CCC3)c1=O)CCCC2 [Compound 13, 1-(cyclobutylmethyl)-3-(4-methoxypyridin-3-yl)-5,6,7,8-tetrahydroquinolin-2(1H)-one] | – | – | +B | –
O=c1c(-c2ccccc2F)cc2c(n1CC1CCC1)CCCC2 [Compound 15, 1-(cyclobutylmethyl)-3-(2-fluorophenyl)-5,6,7,8-tetrahydroquinolin-2(1H)-one] | +B | > 10 | +B | –
O=c1c(C2=NN(c3ccccc3)C(c3ccco3)C2)cc2c(n1CC1CCC1)CCCC2 (stereo not drawn) [Compound 21, 1-(cyclobutylmethyl)-3-(5-(furan-2-yl)-1-phenyl-4,5-dihydro-1H-pyrazol-3-yl)-5,6,7,8-tetrahydroquinolin-2(1H)-one] | – | – | +C | –
O=c1c(-c2cccc(C(F)(F)F)c2)cc2c(n1CC1CCCCC1)CCCC2 [Compound 24, 1-(cyclohexylmethyl)-3-(3-(trifluoromethyl)phenyl)-5,6,7,8-tetrahydroquinolin-2(1H)-one] | – | – | +A | +B
Cc1noc(C)c1-c1cc2c(n(CC3CCC3)c1=O)CCCC2 [Compound 27, 1-(cyclobutylmethyl)-3-(3,5-dimethylisoxazol-4-yl)-5,6,7,8-tetrahydroquinolin-2(1H)-one] | – | – | +B | –
O=c1c(-c2cn[nH]c2)cc2c(n1CC1CCC1)CCCC2 [Compound 28, 1-(cyclobutylmethyl)-3-(1H-pyrazol-4-yl)-5,6,7,8-tetrahydroquinolin-2(1H)-one] | −C | > 10 | – | –
CC(C)(C)OC(=O)N1CCc2c(cc(-c3cccc(Cl)c3)c(=O)n2CC2CCC2)C1 [Compound 35, tert-butyl 3-(3-chlorophenyl)-1-(cyclobutylmethyl)-2-oxo-1,2,7,8-tetrahydro-1,6-naphthyridine-6(5H)-carboxylate] | −B | > 10 | – | –
CC(C)(C)OC(=O)N1CCc2c(cc(-c3ccc(C(F)(F)F)cc3)c(=O)n2CC2CCC2)C1 [Compound 36, tert-butyl 3-(4-(trifluoromethyl)phenyl)-1-(cyclobutylmethyl)-2-oxo-1,2,7,8-tetrahydro-1,6-naphthyridine-6(5H)-carboxylate] | −C | – | – | –
CC(C)(C)OC(=O)N1CCc2c(cc(-c3cccnc3)c(=O)n2CC2CCC2)C1 [Compound 37, tert-butyl 1-(cyclobutylmethyl)-2-oxo-3-(pyridin-3-yl)-1,2,7,8-tetrahydro-1,6-naphthyridine-6(5H)-carboxylate] | −C | – | – | –
O=C(c1ccno1)N1CCc2c(cc(-c3ccc(C(F)(F)F)cc3)c(=O)n2CC2CCC2)C1 [Compound 45, 1-(cyclobutylmethyl)-6-(isoxazole-5-carbonyl)-3-(4-(trifluoromethyl)phenyl)-5,6,7,8-tetrahydro-1,6-naphthyridin-2(1H)-one] | −C | > 10 | – | –
CC(C)C(=O)N1CCc2c(cc(-c3cccc(Cl)c3)c(=O)n2CC2CC2)C1 [Compound 51, 3-(3-chlorophenyl)-1-(cyclopropylmethyl)-6-isobutyryl-5,6,7,8-tetrahydro-1,6-naphthyridin-2(1H)-one] | – | – | +B | –
COc1cccc(-c2cc3c(n(CC4CCC4)c2=O)CCN(C(C)=O)C3)c1 [Compound 55, 6-acetyl-1-(cyclobutylmethyl)-3-(3-methoxyphenyl)-5,6,7,8-tetrahydro-1,6-naphthyridin-2(1H)-one] | −C | – | – | −B
O=c1c(-c2ccc(C(F)(F)F)cc2)cc2c(n1CC1CCC1)CCN(S(=O)(=O)c1ccccc1)C2 [Compound 56, 1-(cyclobutylmethyl)-6-(phenylsulfonyl)-3-(4-(trifluoromethyl)phenyl)-5,6,7,8-tetrahydro-1,6-naphthyridin-2(1H)-one] | −C | – | – | −B
O=c1c(-c2ccc(C(F)(F)F)cc2)cc2c(n1CC1CCC1)CCN(S(=O)(=O)c1cccc(F)c1)C2 [Compound 57, 1-(cyclobutylmethyl)-6-(3-fluorophenylsulfonyl)-3-(4-(trifluoromethyl)phenyl)-5,6,7,8-tetrahydro-1,6-naphthyridin-2(1H)-one] | −B | – | – | –
